From US6075018A, “1-[2-(substituted vinyl)]-3,4-dihydro-4-dihydro-5H-2,3-benzodiazepine derivatives” (priority 1995, dated 2000)

Assays:
mice = assay: Acute toxicity (dead/treated animals); format: in vivo
Procedure: The SMA inhibiting effect and the acute toxicity data (dead/treated animals, shown in brackets) of the new compounds are provided in Table II.
The experiments were performed according to the method of S.Irwin [Psychopharm. 13, 222 (1968)].

[1] = tested on: stereotypy induced by amphetamine; assay: Potentiation of the stereotypy induced by amphetamine, scale of Constall and Naylor; format: in vivo; settings: ip; 10 mg/kg i.p. + amphetamine 3 mg/kg s.c.
Procedure: The potentiation of the stereotypy evoked by amphetamine was evaluated according to the scale of Constall and Naylor (Eur. J. Pharmacol. 18, 95, 1972).
*10 mg/kg i.p. + amphetamine 3 mg/kg s.c.

[2] = tested on: convulsions evoked by pentetrazole; assay: Inhibition of pentetrazole-evoked convulsions, method of Goodmann et al.; format: in vivo; settings: Mus musculus, ip; mice, 30 mg/kg i.p.; 50 mg/kg i.v. pentetrazole
Procedure: The compounds of general formula (I) exert a moderate anticonvulsive effect, too. This latter was measured in mice applying the method of Goodmann et al.[J. Pharmacol. Exp. Ther. 106, 319, (1952)]. The convulsions evoked by 50 mg/kg i.v. of pentetrazole were inhibited by 30-40% and 50-55% after the i.p. administration of 30 mg/kg of the compounds of Examples 10., 11., 13., 19., 28., 35, 40., and Examples 34 and 38, respectively.

[3] = tested on: hippocampal CA1 field potentials (glutamate acting mainly through AMPA receptors); assay: Inhibition of CA1 field potentials in hippocampal slices (glutamatergic transmission), method of Tarnawa et al.; parameters: species or system rat; settings: for Inhibition (%) 30 minutes after drug administration / Inhibition (%) 60 minutes after drug administration / Inhibition (%) after 30 minutes wash-out / efficacy compared to GYKI-52466: 50 μM; for Inhibition (%) after 30 minutes wash-out: *p < 0.05 compared to the 60 minutes value; for duration of action compared to known molecules / GYKI-52466 / efficacy compared to GYKI-52466: hippocampal slices; for effect of 30 minutes wash-out on the inhibition: wash-out lasting 30 minutes vs preceding 60 minutes incubation
Procedure: The effects of the compounds on the glutamatergic transmission were studied in hippocampal slices applying the method of Tarnawa et al. (Acta Physiol. Hung., 79, 163, 1992). 400 μm thick slices were prepared from rat brain and maintained in a chamber of interface type under simulated […] conditions. The Schaffer collaterals were stimulated and field potentials were recorded from the pyramidal cells of the hippocampal CA1 region. The neurotransmitter involved in this process is glutamate acting mainly through AMPA receptors.

[4] = tested on: hippocampal CA1 field potentials (glutamate acting mainly through AMPA receptors); settings: known AMPA antagonist; cited from earlier work
[5] = background statement; cited from earlier work

For CC1Cc2cc3c(cc2C(/C=C/c2ccccc2)=NN1)OCO3 (stereo not drawn) [Example 27, 1-Styryl-4-methyl-7,8-methylenedioxy-3,4-dihydro-5H-2,3-benzodiazepine], the “acute toxicity (dead/treated animals)” value (mice; i.p. 300 mg/kg) was 0/5 and the change in vivo at 10 mg/kg [1] was 183%.

COc1cc2c(cc1OC)C(/C=C/c1cccc(O)c1)=NNC(C)C2 (stereo not drawn) [Example 11] showed an inhibition in vivo at 30 mg/kg [2] of 30 to 40%.

For CC(=O)Nc1ccc(/C=C/C2=NN(C(C)=O)C(C)Cc3cc4c(cc32)OCO4)cc1 (stereo not drawn) [Example 40, 1-(4-Acetylaminostyryl)-3-acetyl-4-methyl-7,8-methylenedioxy-3,4-dihydro-5H-2,3-benzodiazepine], the “Inhibition (%) 30 minutes after drug administration” value (“Inhibition (%) 30 minutes” for short) [3] was 14.8 ± 7.10%, the “Inhibition (%) 60 minutes after drug administration” value (“Inhibition (%) 60 minutes” for short) [3] was 25.8 ± 3.04% and the “Inhibition (%) after 30 minutes wash-out” value [3] was 35.4 ± 2.67%. For the same compound, the change in vivo at 10 mg/kg [1] was 99.7% and the inhibition in vivo at 30 mg/kg [2] was 30 to 40%.

In the case of COc1cc2c(cc1OC)C(/C=C/c1ccccc1)=NN(C(C)=O)C(C)C2 (stereo not drawn) [Example 20, 1-Styryl-3-acetyl-4-methyl-7,8-dimethoxy-3,4-dihydro-5H-2,3-benzodiazepine], the “acute toxicity (dead/treated animals)” value (mice; i.p. 300 mg/kg) is reported as 1/5.

In the case of COc1cc2c(cc1OC)C(/C=C/c1ccc3c(c1)OCO3)=NNC(C)C2 (stereo not drawn) [Example 3], the “acute toxicity (dead/treated animals)” value (mice; i.p. 300 mg/kg) is reported as 0/5 and the “acute toxicity (dead/treated animals)” value (mice; p.o. 1000 mg/kg) is reported as 0/5.

For COc1ccc(/C=C/C2=NNC(C)Cc3cc4c(cc32)OCO4)cc1OC (stereo not drawn) [Example 1, 1-(3,4-Dimethoxystyryl)-4-methyl-7,8-methylenedioxy-3,4-dihydro-5H-2,3-benzodiazepine], the “acute toxicity (dead/treated animals)” value (mice; i.p. 300 mg/kg) was 0/5 and the “acute toxicity (dead/treated animals)” value (mice; p.o. 1000 mg/kg) was 0/5.

CCC1c2cc(OC)c(OC)cc2C(/C=C/c2ccc(N)cc2)=NN(C(C)=O)C1C (stereo not drawn) [Example 38, 1-(4-Aminostyryl)-3-acetyl-4-methyl-5-ethyl-7,8-dimethoxy-3,4-dihydro-5H-2,3-benzodiazepine] gave an inhibition in vivo at 30 mg/kg [2] of 50 to 55%.

Compound COc1ccc(/C=C/C2=NN(C(C)=O)C(C)Cc3cc4c(cc32)OCO4)c(OC)c1 (stereo not drawn) [Example 19, 1-(2,4-Dimethoxystyryl)-3-acetyl-4-methyl-7,8-methylenedioxy-3,4-dihydro-5H-2,3-benzodiazepine] has an inhibition in vivo at 30 mg/kg [2] of 30 to 40%.

Compound COc1cc2c(cc1OC)C(/C=C/c1ccc([N+](=O)[O-])cc1)=NN(C(C)=O)C(C)C2 (stereo not drawn) [Example 30, 1-(4-Nitrostyryl)-3-acetyl-4-methyl-7,8-dimethoxy-3,4-dihydro-5H-2,3-benzodiazepine] has a change in vivo at 10 mg/kg [1] of 100%.

COc1cc2c(cc1OC)C(/C=C/c1ccc(N(C)C)cc1)=NNC(C)C2 (stereo not drawn) [Example 7] showed a change in vivo at 10 mg/kg [1] of 90.2%.

For CCC1c2cc(OC)c(OC)cc2C(/C=C/c2ccc([N+](=O)[O-])cc2)=NNC1C (stereo not drawn) [Example 26, 1-(4-Nitrostyryl)-4-methyl-5-ethyl-7,8-dimethoxy-3,4-dihydro-5H-2,3-benzodiazepine], the “acute toxicity (dead/treated animals)” value (mice; i.p. 300 mg/kg) was 0/5 and the “acute toxicity (dead/treated animals)” value (mice; p.o. 1000 mg/kg) was 0/5.

In the case of CCC1c2cc3c(cc2C(/C=C/c2ccc(NC(C)=O)cc2)=NN(C(C)=O)C1C)OCO3 (stereo not drawn) [Example 41, 1-(4-Acetylaminostyryl)-3-acetyl-4-methyl-5-ethyl-7,8-methylenedioxy-3,4-dihydro-5H-2,3-benzodiazepine], the “acute toxicity (dead/treated animals)” value (mice; i.p. 300 mg/kg) is reported as 0/5, the “acute toxicity (dead/treated animals)” value (mice; p.o. 1000 mg/kg) is reported as 0/5 and the “Inhibition (%) 30 minutes” value [3] is reported as 79.5 ± 10.10%. For the same compound, the “Inhibition (%) 60 minutes” value [3] was 100 ± 0%, the “Inhibition (%) after 30 minutes wash-out” value [3] was 98.6 ± 2.67% and the “duration of action compared to known molecules / GYKI-52466” value [3] was “surpass that of GYKI-52466”. For the same compound, the “efficacy compared to GYKI-52466” value [3] was “at least equal efficacy to the molecule GYKI-52466” and the “effect of 30 minutes wash-out on the inhibition” value (“effect … on the inhibition” for short) [3] was “not able to diminish the effect”.

With CC1=NN=C(c2ccc(N)cc2)c2cc3c(cc2C1)OCO3 [GYKI-52466, 1-(4-aminophenyl)-4-methyl-7,8-methylenedioxy-5H-2,3-benzodiazepine, reference compound] the “Inhibition (%) 30 minutes” value [3] was 94.5 ± 2.07%, the “Inhibition (%) 60 minutes” value [3] was 100 ± 0% and the “Inhibition (%) after 30 minutes wash-out” value [3] was 84.6 ± 7.37%. For the same compound, the “effect … on the inhibition” value [3] was “significantly smaller than that observed after the preceding incubation period”, the “inhibition of the CA1 field potentials (in words)” value [4] was “concentration-dependently inhibits the CA1 field potentials” and the “duration of action (in words)” value [5] was “rather short”. For the same compound, the “known pharmacological activity (in words)” value [5] was “non-NMDA-glutamic acid antagonist having spasmolytic and antiischemic activities”.

For CC1Cc2cc3c(cc2C(/C=C/c2ccc(N)cc2)=NN1)OCO3 (stereo not drawn) [Example 34, 1-(4-Aminostyryl)-4-methyl-7,8-methylenedioxy-3,4-dihydro-5H-2,3-benzodiazepine], the change in vivo at 10 mg/kg [1] was 92% and the inhibition in vivo at 30 mg/kg [2] was 50 to 55%.

For COc1cc2c(cc1OC)C(c1cccc(Cl)c1)=NN=C(C)C2 [Girisopam, 1-(3-chlorophenyl)-4-methyl-7,8-dimethoxy-5H-2,3-benzodiazepine, reference compound], the “acute toxicity (dead/treated animals)” value (mice; i.p. 300 mg/kg) was 0/6.

CC1Cc2cc3c(cc2C(/C=C/c2ccc(N(C)C)cc2)=NN1)OCO3 (stereo not drawn) [Example 9] showed a change in vivo at 10 mg/kg [1] of 141%.

With COc1cc2c(cc1OC)C(/C=C/c1ccc(NC(C)=O)cc1)=NN(C(C)=O)C(C)C2 (stereo not drawn) [Example 39, 1-(4-Acetylaminostyryl)-3-acetyl-4-methyl-7,8-dimethoxy-3,4-dihydro-5H-2,3-benzodiazepine] the “Inhibition (%) 30 minutes” value [3] was 85.3 ± 15.09%, the “Inhibition (%) 60 minutes” value [3] was 100 ± 0% and the “Inhibition (%) after 30 minutes wash-out” value [3] was 97.5 ± 0.98%. For the same compound, the “duration of action compared to known molecules / GYKI-52466” value [3] was “surpass that of GYKI-52466”, the “efficacy compared to GYKI-52466” value [3] was “at least equal efficacy to the molecule GYKI-52466” and the “effect … on the inhibition” value [3] was “not able to diminish the effect”. The change in vivo at 10 mg/kg [1] was 113%.

Work on COc1cc2c(cc1OC)C(/C=C/c1ccccc1Br)=NNC(C)C2 (stereo not drawn) [Example 14] yielded a change in vivo at 10 mg/kg [1] of 113%.

With CCOc1cc2c(cc1OCC)C(/C=C/c1ccc(N(C)C)cc1)=NNC(C)C2 (stereo not drawn) [Example 10] the change in vivo at 10 mg/kg [1] was 176% and the inhibition in vivo at 30 mg/kg [2] was 30 to 40%.

For COc1cc2c(cc1OC)C(/C=C/c1ccc(N)cc1)=NNC(C)C2 (stereo not drawn) [Example 33, 1-(4-Aminostyryl)-4-methyl-7,8-dimethoxy-3,4-dihydro-5H-2,3-benzodiazepine], the change in vivo at 10 mg/kg [1] was 202%.

With CC1Cc2cc3c(cc2C(/C=C/c2ccc4c(c2)OCO4)=NN1)OCO3 (stereo not drawn) [Example 8] the change in vivo at 10 mg/kg [1] was 113%.

Compound COc1ccc(/C=C/C2=NNC(C)Cc3cc4c(cc32)OCO4)cc1C(C)C (stereo not drawn) [Example 13] has an inhibition in vivo at 30 mg/kg [2] of 30 to 40%.

Work on CCC1c2cc(OC)c(OC)cc2C(/C=C/c2ccc(N)cc2)=NNC1C (stereo not drawn) [Example 35, 1-(4-Aminostyryl)-4-methyl-5-ethyl-7,8-dimethoxy-3,4-dihydro-5H-2,3-benzodiazepine] yielded an inhibition in vivo at 30 mg/kg [2] of 30 to 40%.

For COc1cc2c(cc1OC)C(/C=C/c1cccc(OC)c1OC)=NN(C(C)=O)C(C)C2 (stereo not drawn) [Example 22, 1-(2,3-Dimethoxystyryl)-3-acetyl-4-methyl-7,8-dimethoxy-3,4-dihydro-5H-2,3-benzodiazepine], the “acute toxicity (dead/treated animals)” value (mice; i.p. 300 mg/kg) was 1/5, the “Inhibition (%) 30 minutes” value [3] was 4.7 ± 0.84% and the “Inhibition (%) 60 minutes” value [3] was 37.0 ± 9.19%. For the same compound, the “Inhibition (%) after 30 minutes wash-out” value [3] was 74.3 ± 11.53%.

Compound COc1cc2c(cc1OC)C(/C=C/c1ccc(Cl)c(Cl)c1)=NNC(C)C2 (stereo not drawn) [Example 28, 1-(3,4-Dichlorostyryl)-4-methyl-7,8-dimethoxy-3,4-dihydro-5H-2,3-benzodiazepine] has a change in vivo at 10 mg/kg [1] of 92.5% and an inhibition in vivo at 30 mg/kg [2] of 30 to 40%.

For COc1ccc(/C=C/C2=NN(C(C)=O)C(C)Cc3cc(OC)c(OC)cc32)c(OC)c1 (stereo not drawn) [Example 21, 1-(2,4-Dimethoxystyryl)-3-acetyl-4-methyl-7,8-dimethoxy-3,4-dihydro-5H-2,3-benzodiazepine], the “Inhibition (%) 30 minutes” value [3] was 16.1 ± 13.4%, the “Inhibition (%) 60 minutes” value [3] was 33.7 ± 7.60% and the “Inhibition (%) after 30 minutes wash-out” value [3] was 61.1 ± 4.56%.

For COc1cccc(/C=C/C2=NN(C(C)=O)C(C)Cc3cc4c(cc32)OCO4)c1OC (stereo not drawn) [Example 23, 1-(2,3-Dimethoxystyryl)-3-acetyl-4-methyl-7,8-methylenedioxy-3,4-dihydro-5H-2,3-benzodiazepine], the “acute toxicity (dead/treated animals)” value (mice; i.p. 300 mg/kg) was 0/5 and the “acute toxicity (dead/treated animals)” value (mice; p.o. 1000 mg/kg) was 0/5.
